Data from patent US4668514A, “Penicillin derivatives” (Taiho Pharmaceutical Company Limited, priority 1983, dated 1987).

Target: penicillinase (β-lactamase) derived from Bacillus sp.
Assay: β-lactamase inhibitory activity measured by microiodometry using penicillin G as substrate
Format: biochemical
Settings: read-out: 50% Inhibitory Concentration
Description: Test for β-lactamase inhibitory activity
The inhibitory activity against penicillinase (β-lactamase) derived from Bacillus sp. was measured by microiodometry Tanpakushitsu Kakusan Koso (Protein Nucleic Acid Enzyme), vol. 23, No. 5, pp 391 to 400 (1978) using penicillin G as a substrate.

Compound | IC50 [nM]
C[C@]1(Cn2cc(C(F)(F)F)nn2)[C@H](C(=O)O)N2C(=O)C[C@H]2S1(=O)=O [Compound 19, sodium 2α-methylpenam-2β-(4-trifluoromethyl-1,2,3-triazol-1-yl)methyl-3α-carboxylate 1,1-dioxide] | 240
C[C@]1(Cn2nnc(CO)c2CO)[C@H](C(=O)O)N2C(=O)C[C@H]2S1(=O)=O [Compound 50, sodium 2β-(4,5-dihydroxymethyl-1,2,3-triazol-1-yl)methyl-2α-methylpenam-3α-carboxylate 1,1-dioxide] | 2000
CCCCc1cnnn1C[C@@]1(C)[C@H](C(=O)O)N2C(=O)C[C@H]2S1(=O)=O [Compound 9, sodium 2β-(5-n-butyl-1,2,3-triazol-1-yl)methyl-2α-methylpenam-3α-carboxylate 1,1-dioxide] | 650
CC(=O)c1cn(C[C@@]2(C)[C@H](C(=O)OCc3ccc([N+](=O)[O-])cc3)N3C(=O)C[C@H]3S2(=O)=O)nn1 [Compound 32, p-nitrobenzyl 2β-(4-acetyl-1,2,3-triazol-1-yl)methyl-2α-methylpenam-3α-carboxylate 1,1-dioxide] | 120
CCOC(=O)c1c(-c2ccccc2)nnn1C[C@@]1(C)[C@H](C(=O)O)N2C(=O)C[C@H]2S1(=O)=O [Compound 45, sodium 2β-(5-ethoxycarbonyl-4-phenyl-1,2,3-triazol-1-yl)methyl-2α-methylpenam-3α-carboxylate 1,1-dioxide] | 100
C[C@]1(Cn2cc(N)nn2)[C@H](C(=O)O)N2C(=O)C[C@H]2S1(=O)=O [Compound 55, 2β-(4-amino-1,2,3-triazol-1-yl)methyl-2α-methylpenam-3α-carboxylic acid 1,1-dioxide] | 700
CCNC(=O)c1cn(C[C@@]2(C)[C@H](C(=O)O)N3C(=O)C[C@H]3S2(=O)=O)nn1 [Compound 29, sodium 2β-(4-ethylcarbamoyl-1,2,3-triazol-1-yl)methyl-2α-methylpenam-3α-carboxylate 1,1-dioxide] | 20
C[C@]1(Cn2nnc(COCc3ccccc3)c2COCc2ccccc2)[C@H](C(=O)O)N2C(=O)C[C@H]2S1(=O)=O [Compound 49, 2β-(4,5-dibenzyloxymethyl-1,2,3-triazol-1-yl)methyl-2α-methylpenam-3α-carboxylic acid 1,1-dioxide] | 1500
Cc1nnn(C[C@@]2(C)[C@H](C(=O)O)N3C(=O)C[C@H]3S2(=O)=O)c1C [Compound 2, sodium 2β-(4,5-dimethyl-1,2,3-triazol-1-yl)methyl-2α-methylpenam-3α-carboxylate 1,1-dioxide] | 80
CC(=O)OCc1nnn(C[C@@]2(C)[C@H](C(=O)O)N3C(=O)C[C@H]3S2(=O)=O)c1COC(C)=O [Compound 47, sodium-2β-(4,5-diacetoxymethyl-1,2,3-triazol-1-yl)methyl-2α-methylpenam-3α-carboxylate 1,1-dioxide] | 2500
CCCCc1nnn(C[C@@]2(C)[C@H](C(=O)O)N3C(=O)C[C@H]3S2(=O)=O)c1CCCC [Compound 5, sodium 2β-(4,5-di-n-butyl-1,2,3-triazol-1-yl)methyl-2α-methylpenam-3α-carboxylate 1,1-dioxide] | 3000
C[C@]1(Cn2cc(-c3ccccc3)nn2)[C@H](C(=O)O)N2C(=O)C[C@H]2S1(=O)=O [Compound 14, sodium 2β-(4-phenyl-1,2,3-triazol-1-yl)methyl-2α-methylpenam-3α-carboxylate 1,1-dioxide] | 40
Cc1cnnn1C[C@@]1(C)[C@H](C(=O)O)N2C(=O)C[C@H]2S1(=O)=O [Compound 11, sodium 2β-(5-methyl-1,2,3-triazol-1-yl)methyl-2α-methylpenam-3α-carboxylate 1,1-dioxide] | 240
CCOC(=O)c1nnn(C[C@@]2(C)[C@H](C(=O)O)N3C(=O)C[C@H]3S2(=O)=O)c1-c1ccccc1 [Compound 44, sodium 2β-(4-ethoxycarbonyl-5-phenyl-1,2,3-triazol-1-yl)methyl-2α-methylpenam-3α-carboxylate 1,1-dioxide] | 400
C[C@]1(Cn2nnc(C(N)=O)c2C(N)=O)[C@H](C(=O)O)N2C(=O)C[C@H]2S1(=O)=O [Compound 31, sodium 2β-(4,5-dicarbamoyl-1,2,3-triazol-1-yl)methyl-2α-methylpenam-3α-carboxylate 1,1-dioxide] | 130
CCCCc1cn(C[C@@]2(C)[C@H](C(=O)O)N3C(=O)C[C@H]3S2(=O)=O)nn1 [Compound 8, sodium 2β-(4-n-butyl-1,2,3-triazol-1-yl)methyl-2α-methylpenam-3α-carboxylate 1,1-dioxide] | 230
C[C@]1(Cn2nnc(-c3ccccc3)c2-c2ccccc2)[C@H](C(=O)O)N2C(=O)C[C@H]2S1(=O)=O [Compound 17, 2β-(4,5-diphenyl-1,2,3-triazol-1-yl)methyl-2α-methylpenam-3α-carboxylic acid 1,1-dioxide] | 270
COCc1cnnn1C[C@@]1(C)[C@H](C(=O)O)N2C(=O)C[C@H]2S1(=O)=O [Compound 22, sodium 2β-(5-methoxymethyl-1,2,3-triazol-1-yl)methyl-2α-methylpenam-3α-carboxylate 1,1-dioxide] | 1800
C[C@]1(Cn2nncc2-c2ccccc2)[C@H](C(=O)O)N2C(=O)C[C@H]2S1(=O)=O [Compound 15, sodium 2β-(5-phenyl-1,2,3-triazol-1-yl)methyl-2α-methylpenam-3α-carboxylate 1,1-dioxide] | 280
